Experimental data as given in patent publication US10457946B2, “Methods for overcoming glucocorticoid resistance and for determining glucocorticoid resistance potential in cancer” (St. Jude Children's Research Hospital, Inc., priority 2013, dated 2019).

Assays:
Recombinant human CASP1 = biological target: T1, Recombinant human CASP1 (Homo sapiens, UniProt P29466); assay: CASP1 enzymatic assay: cleavage of glucocorticoid receptor (NR3C1) by recombinant CASP1; assay type: biochemical; conditions: for CASP1-induced cleavage of the glucocorticoid receptor (NR3C1): recombinant human CASP1, 30° C., inhibitor 10 μM unless otherwise indicated, FIG. 3A, 3C
T1 construct: purchased Enzo Life Sciences BML-AK701-0001
T1 sequence (P29466 120-297): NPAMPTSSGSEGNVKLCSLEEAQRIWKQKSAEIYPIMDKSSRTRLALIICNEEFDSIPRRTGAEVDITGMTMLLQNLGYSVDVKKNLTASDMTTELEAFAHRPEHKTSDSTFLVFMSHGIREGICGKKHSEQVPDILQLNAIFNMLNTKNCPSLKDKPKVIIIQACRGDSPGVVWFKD
T1 sequence (P29466 317-404): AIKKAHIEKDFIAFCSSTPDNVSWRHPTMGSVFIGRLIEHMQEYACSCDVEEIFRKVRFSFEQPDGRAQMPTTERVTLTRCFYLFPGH
Description: Recombinant human CASP1 (100-200 U, where U=1 pmol/min at 30° C., 200 μM YVAD-pNA (SEQ ID NO: 21)) from a CASP1 assay kit for drug discovery (Enzo Life Sciences, Farmingdale, N.Y., catalog number BML-AK701-0001) was incubated at 30° C. with wild-type or mutated GR in the presence (10 μM unless otherwise indicated) or absence of inhibitors, (Ac-YVAD-CHO (SEQ ID NO: 18), Enzo Life Sciences, Farmingdale, N.Y., catalog number BML-P403-9090), VX765, VRT-043198).
Cells were pelleted by centrifugation, washed once with PBS and lysed with RIPA buffer or caspase-1 assay buffer (Enzo Life Sciences, Farmingdale, N.Y. catalog number KI-111), equal amounts of proteins (1-20 μg) separated by 4-12% Novex Bis-Tris gels (Life Technologies, Grand Island, N.Y.), and then transblotted to PVDF membranes (Life Technologies, Grand Island, N.Y.). Anti-GR (1:1000-1:10,000, BD catalog number 611227), anti-DDK […] (1:1000, Origene catalog number TA50011), anti-Bim (1:1000, Cell Signalling catalog number 2819) or anti-Tubulin (1:1000, Santa Cruz, sc-8035) were used as primary antibodies followed by appropriate secondary HRP-conjugated IgG (1:1000, Dako) and immunocomplexes were visualized by chemiluminescence.

[1] = system: NALM-6 cells overexpressing CASP1; assay type: cell-based, human; conditions: CASP1 overexpressing ALL (NALM-6) cells transduced with the named shRNA, +LPS/ATP, MTT, mean±S.E.M., n=4; read-out: LC50 (glucocorticoid sensitivity, prednisolone)
Description: The sensitivity (LC50) of shCASP1 and shNT cells to prednisolone was determined by MTT assays (Panel B). […] Error bars represent S.E.M; n=4 replicate experiments.
NALM-6 cells overexpressing CASP1 co-transfected with either non-targeting scrambled hairpin (shNT; SEQ ID NO: 13) or shRNA hairpins targeting CASP1 (shCASP1; SEQ ID NO: 14) were stably transduced with lentiviral vectors (Addgene plasmid 25890; Sigma-Aldrich, St. Louis, Mo.) containing a wild-type glucocorticoid receptor (SEQ ID NO: 16) or a glucocorticoid receptor in which both CASP1 cleavage sites had been eliminated (double mutagenized GR, DM-GR (SEQ ID NO: 17)).
Cells were centrifuged at 300 g for five minutes and resuspended at a concentration of two million cells per milliliter. Eighty microliters of this leukemia cell suspension was then plated into each experimental well of round-bottom 96-well plates. Twenty microliters of decreasing concentrations of prednisolone were added and the plates were incubated for ninety-six hours in a humidified incubator containing 5% CO2 at 37° C. For the final six hours, ten microliters of 5 milligram per milliliter MTT (3-4,5-dimethylthiazol-2,5-diphenyl tetrazolium bromide) was added to each experimental well. […] LC50 values were determined as previously described (Holleman et al., 2004). […]

Nalm6 leukemia cell line = assay: MTT drug sensitivity assay in Nalm6 cells with enforced CASP1 expression or empty vector; assay type: cell-based, human; conditions: for increase in resistance (LC50) by CASP1 over-expression: Nalm6 cells transduced with CASP1, after activation of NLRP3 inflammasome (LPS/ATP), average
Description: Leukemia cells were isolated at diagnosis from patient bone marrow aspirates. If the leukemia cell percentage from diagnostic bone marrow samples was less than ninety percent, magnetic activated cell sorting (Miltenyl Biotec, Auburn, Calif.) was performed to further enrich for leukemia cells. If red cell contamination was greater than thirty percent, red blood cell lysis was performed. Cells were centrifuged at 300 g for five minutes and resuspended at a concentration of two million cells per milliliter. Eighty microliters of this leukemia cell suspension was then plated into each experimental well of round-bottom 96-well plates. Twenty microliters of decreasing concentrations of prednisolone were added and the plates were incubated for ninety-six hours in a humidified incubator containing 5% CO2 at 37° C. For the final six hours, ten microliters of 5 milligram per milliliter MTT (3-4,5-dimethylthiazol-2,5-diphenyl tetrazolium bromide) was added to each experimental well. Drug resistance assays in cell lines were performed using between 0.25 and 2.5 million cells per milliliter. Assays were developed and performed as for patient sample assays. LC50 values were determined as previously described (Holleman et al., 2004).
Full-length CASP1 (Origene, Rockville, Md., catalog # RC218364; GenBank Accession No. NM_033292) was subcloned into a lentiviral backbone (System Biosciences, Mountain View, Calif., catalog number CD527A-1), in frame with a T2A linked puromycin resistance gene. Lentivirus was produced in 293T cells and the Nalm6 leukemia cell line was transduced. 72 hours post transduction, cells were selected with 2.5 micrograms per milliliter puromycin. Where indicated cells were treated with 10 μg/mL LPS (InvivoGen, San Diego, Calif.) followed 2 hours later by 5 mM ATP (Roche, Pleasanton, Calif.).

| Molecule | CASP1-induced cleavage of the glucocorticoid receptor (NR3C1) (Recombinant human CASP1) | increase in resistance (LC50) by CASP1 over-expression (Nalm6 leukemia cell line) [fold] | other results |
| --- | --- | --- | --- |
| CCO[C@H]1OC(=O)C[C@@H]1NC(=O)[C@@H]1CCCN1C(=O)[C@H](NC(=O)c1ccc(N)c(Cl)c1)C(C)(C)C [VX765, (S)-1-((R)-2-(4-amino-3-chlorobenzamido)-3,3-dimethylbutanoyl)-N-((2S,3S)-2-ethoxy-5-oxotetrahydro-furan-3-yl)pyrrolidine-2-carboxamide] | inhibited | – | – |
| shNT: non-targeting scrambled shRNA hairpin, control (CCGGCAACAAGATGAAGAGCACCAACTCGAGTTGGTGCTCTTCATCTTGTTGTTTTT) | – | – | CC50 [1]: 570 ± 423 µM |
| CC(C)(C)[C@@H](NC(=O)c1ccc(N)c(Cl)c1)C(=O)N1CCC[C@H]1C(=O)N[C@H](C=O)CC(=O)O [VRT043198, (S)-3-((S)-1-((R)-2-(4-amino-3-chlorobenzamido)-3,3-dimethylbutanoyl)pyrrolidine-2-carboxamido)-4-oxobutanoic acid] | inhibited | – | inhibitory activity on CASP1 cleavage of NR3C1 compared with VX-765 (Recombinant human CASP1; FIG. 3C): higher inhibitory activity |
| C[C@@H]1C[C@H]2[C@@H]3CCC4=CC(=O)C=C[C@]4(C)[C@@]3(F)[C@@H](O)C[C@]2(C)[C@@]1(O)C(=O)CO [dexamethasone] | – | 5.3 | – |
| C[C@]12C=CC(=O)C=C1CC[C@@H]1[C@@H]2[C@@H](O)C[C@@]2(C)[C@H]1CC[C@]2(O)C(=O)CO [prednisolone] | – | 16.9 | difference in sensitivity on activation of the NLRP3 inflammasome and CASP1 (Nalm6 leukemia cell line; Nalm6 cells transduced with empty vector control virus): no difference |
